Laboratory results taken from ChEMBL document CHEMBL2073909 (J Pharmacol Exp Ther, 1999).

What was measured:
[1] = molecular target: T1, Hepatic sodium/bile acid cotransporter (Homo sapiens, UniProt Q14973); format: functional, cell-based, HeLa
T1 sequence (Q14973 whole entry): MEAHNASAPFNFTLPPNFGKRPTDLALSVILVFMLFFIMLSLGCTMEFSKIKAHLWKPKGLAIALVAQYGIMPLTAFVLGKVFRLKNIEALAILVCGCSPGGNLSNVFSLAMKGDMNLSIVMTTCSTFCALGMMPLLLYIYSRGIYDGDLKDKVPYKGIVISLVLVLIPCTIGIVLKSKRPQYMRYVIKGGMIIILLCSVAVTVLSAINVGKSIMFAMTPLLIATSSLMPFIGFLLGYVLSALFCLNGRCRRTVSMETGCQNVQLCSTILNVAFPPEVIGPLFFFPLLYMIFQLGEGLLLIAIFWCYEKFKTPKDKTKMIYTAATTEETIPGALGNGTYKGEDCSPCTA

[2] = molecular target: T1, Hepatic sodium/bile acid cotransporter; experiment: TP_TRANSPORTER: inhibition of Taurocholate uptake (Taurocholate: 5 uM, Chlorpropamide: 100 uM) in NTCP-expressing HeLa cells; format: functional, cell-based
[3] = molecular target: T1, Hepatic sodium/bile acid cotransporter; experiment: TP_TRANSPORTER: inhibition of Taurocholate uptake (Taurocholate: 5 uM, Deoxycholate: 100 uM) in NTCP-expressing HeLa cells; format: functional, cell-based
[4] = molecular target: T1, Hepatic sodium/bile acid cotransporter; experiment: TP_TRANSPORTER: inhibition of Taurocholate uptake (Taurocholate: 5 uM, Progesterone: 100 uM) in NTCP-expressing HeLa cells; format: functional, cell-based

Structure (SMILES) | IC50 [1] | further results
O=C1OC(c2ccc(O)c(S(=O)(=O)O)c2)(c2ccc(O)c(S(=O)(=O)O)c2)c2c(Br)c(Br)c(Br)c(Br)c21 [SULFOBROMOPHTHALEIN SODIUM] | 7.3 µM | –
CCCNC(=O)NS(=O)(=O)c1ccc(Cl)cc1 [CHLORPROPAMIDE] | – | Inhibition [2]: inhibitor [(at a rough estimate) 30 % inhibition]
CC(C)NCC(O)COc1cccc2ccccc12 (stereo not drawn) [PROPRANOLOL] | 5.5 µM | –
CC(=O)N1CCN(c2ccc(OCC3COC(Cn4ccnc4)(c4ccc(Cl)cc4Cl)O3)cc2)CC1 (stereo not drawn) [KETOCONAZOLE] | 264 µM | –
C[C@H](CCC(=O)O)[C@H]1CC[C@H]2[C@@H]3CC[C@@H]4C[C@H](O)CC[C@]4(C)[C@H]3C[C@H](O)[C@]12C [DEOXYCHOLIC ACID] | – | Inhibition [3]: inhibitor [(at a rough estimate) 70 % inhibition]
CC(=O)[C@H]1CC[C@H]2[C@@H]3CCC4=CC(=O)CC[C@]4(C)[C@H]3CC[C@]12C [PROGESTERONE] | – | Inhibition [4]: inhibitor [(at a rough estimate) 80 % inhibition]
C[C@H](CCC(=O)O)[C@H]1CC[C@H]2[C@@H]3[C@@H](O)C[C@@H]4C[C@H](O)CC[C@]4(C)[C@H]3CC[C@]12C [URSODIOL] | 3.6 µM | –
CC(C)NC[C@H](O)COc1cccc2ccccc12 [LEVOPROPRANOLOL] | 6.1 µM | –
